# Experiments:
# [1] = target: T1, Sortase A (Staphylococcus aureus, UniProt Q9S446); assay: Inhibition of SrtA
# T1 sequence (Q9S446 whole entry): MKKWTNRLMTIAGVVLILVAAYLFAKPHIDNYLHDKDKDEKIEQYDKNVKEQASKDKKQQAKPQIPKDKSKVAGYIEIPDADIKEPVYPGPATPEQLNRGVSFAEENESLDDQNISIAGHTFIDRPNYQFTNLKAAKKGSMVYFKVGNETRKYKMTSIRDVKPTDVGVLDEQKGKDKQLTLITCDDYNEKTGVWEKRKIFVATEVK
# [2] = tested on: Staphylococcus aureus; assay: Antimicrobial activity against Staphylococcus aureus Newman; type: functional
# [3] = tested on: Staphylococcus aureus; assay: Inhibition of Staphylococcus aureus Newman adhesion to fibronectin; type: functional, organism-based
# [4] = tested on: Staphylococcus aureus; assay: Inhibition of Staphylococcus aureus SKM12 adhesion to fibronectin in relative to wild type; type: functional; set-up: scale not given: the % may be the effect or the level left
Compound,IC50 [1],MIC [2],Activity [3],Activity [4]
COc1cc2ccnc3c2c(c1OC)NC=C3 [AAPTAMINE],103 µM,> 200 µg/mL,–,–
COc1ccc2cc3[n+](cc2c1OC)CCc1cc2c(cc1-3)OCO2.[Cl-] [BERBERINE CHLORIDE],23.4 µM,100 µg/mL,–,–
Oc1cc2ccnc3c2c(c1O)NC=C3 [DEMETHYLAAPTAMINE],85.9 µM,25 µg/mL,–,–
COC1=Cc2ccnc3ccnc(c23)C1=O [DEMETHYLOXY-AAPTAMINE],94.7 µM,25 µg/mL,–,–
COc1cc2ccnc3c2c(c1O)N(C)C=C3 [ISOAAPTAMINE],16.2 µM,50 µg/mL,Dose-dependent effect,99%
